Laboratory results: patent publication US20130097725A1, “SOYBEAN NODULATION FACTOR RECEPTOR PROTEINS, ENCODING NUCLEIC ACIDS AND USES THEREFOR” (The University of Queensland, priority 2005, published 2013)
Marks after values point to notes of the source that are not given here.

Assays:
[1] = test system: soybean plants (nod49, nod139, Bragg); test: Interaction of B. japonicum inoculum titer and Nod Factor on nodule number; assay type: in vivo, Glycine max; conditions: Plus NF 10^−8 M, 35 days
[2] = test system: soybean plants (nod49, nod139, Bragg); test: as above; assay type: in vivo, Glycine max; conditions: for nodule number: nod49, Plus NF 10^−8 M, 35 days
Source text: We tested this phenomenon by inoculating nod49 plants with different titers of B. japonicum CB1809 and observed increased partial nodulation success per plant with elevated rhizobial concentration. […] Since infection thread formation is essential for the progression of early CCDs (FIG. 4B), mutations in GmNFR1α result in non-nodulation. Thus GmNFR1α mutants, when exposed to high NF levels, form nodules via normal infection, showing that GmNFR1β suffices for all early nodule ontogeny steps.

Substance: NodV-MeFuc [NF]
- nodule number ([1]; Bragg, B. japonicum CB1809 10^3 cfu·ml^−1): 82.5 ± 5.0 ^d
- nodule number ([1]; Bragg, B. japonicum CB1809 10^7 cfu·ml^−1): 101.4 ± 8.5 ^e
- nodule number ([1]; Bragg, B. japonicum CB1809 10^10 cfu·ml^−1): 104.2 ± 6.9 ^e
- nodule number ([1]; nod139, B. japonicum CB1809 10^3 cfu·ml^−1): 0.0 ^a
- nodule number ([1]; nod139, B. japonicum CB1809 10^7 cfu·ml^−1): 0.0 ^a
- nodule number ([1]; nod139, B. japonicum CB1809 10^10 cfu·ml^−1): 0.2 ± 0.2 ^a
- nodule number ([2]; B. japonicum CB1809 10^3 cfu·ml^−1): 0.0 ^a
- nodule number ([2]; B. japonicum CB1809 10^7 cfu·ml^−1): 0.7 ± 0.2 ^b
- nodule number ([2]; B. japonicum CB1809 10^10 cfu·ml^−1): 2.3 ± 0.4 ^c
- nodulation on addition of NF to the nutrient medium ([2]; nod49 mutant plants, NF 10 nM): significantly increased
